Results reported in the supplement of paper PMC10307832.

Tests used:
Assay in all cases: relative viability (nuclei count vs DMSO), 5 days (fraction); higher = more cells survive
NCI-H661 = tested on: NCI-H661
Method in brief: (§1)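 Medians of duplicate plates are given as relative viability. That measure is the nuclei count in treated wells divided by the count in vehicle wells. Counts were taken on 4× images of lung cancer cell lines in 1536-well plates, 5 days after pin-tool dosing the day after seeding with one drug alone or a fixed anchor-drug dose plus five library-drug doses (not always all listed) in √10 steps.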

NCI-H2009 = tested on: NCI-H2009
Method in brief: as §1

CAL-12T = tested on: CAL-12T
Method in brief: as §1

NCI-H3122 = tested on: NCI-H3122
Method in brief: as §1

NCI-H1437 = tested on: NCI-H1437
Method in brief: as §1

NCI-H1666 = tested on: NCI-H1666
Method in brief: as §1

LK-2 = tested on: LK-2
Method in brief: as §1

NCI-H727 = tested on: NCI-H727
Method in brief: as §1

ABC-1 = tested on: ABC-1
Method in brief: as §1

EKVX = tested on: EKVX
Method in brief: as §1

NCI-H2170 = tested on: NCI-H2170
Method in brief: as §1

HARA = tested on: HARA
Method in brief: as §1

201T = tested on: 201T
Method in brief: as §1

SW 900 = tested on: SW 900
Method in brief: as §1

PC-14 = tested on: PC-14
Method in brief: as §1

COR-L 105 = tested on: COR-L 105
Method in brief: as §1

BEN = tested on: BEN
Method in brief: as §1

NCI-H441 = tested on: NCI-H441
Method in brief: as §1

NCI-H2023 = tested on: NCI-H2023
Method in brief: as §1

LU99A = tested on: LU99A
Method in brief: as §1

NCI-H838 = tested on: NCI-H838
Method in brief: as §1

NCI-H1650 = tested on: NCI-H1650
Method in brief: as §1

COR-L23 = tested on: COR-L23
Method in brief: as §1

**Q.** CC(C)Oc1cc(Nc2nc(N[C@@H](C)c3ccc(F)cn3)ncc2Cl)n[nH]1 [AZ23] + CCNC(=O)c1noc(-c2cc(C(C)C)c(O)cc2O)c1-c1ccc(CN2CCOCC2)cc1 [Luminespib] (partner 0.01 µM) was tested. Which relative viability (NCI-H661; first compound 0.01 µM) did it give?
**A.** Its relative viability is 1.06.

**Q.** What about the relative viability (NCI-H661; first compound 0.03162 µM) of the same compound?
**A.** Its relative viability is 0.867.

**Q.** And the relative viability (NCI-H661; first compound 0.3162 µM)?
**A.** Its relative viability is 0.984.

**Q.** What about the relative viability (NCI-H2009; first compound 0.01 µM) of the same compound?
**A.** The relative viability was 1.05.

**Q.** What about the relative viability (NCI-H2009; first compound 0.03162 µM) of the same compound?
**A.** The relative viability was 1.17.

**Q.** What about the relative viability (NCI-H2009; first compound 0.3162 µM) of the same compound?
**A.** The relative viability was 1.1.

**Q.** What about the relative viability (CAL-12T; first compound 0.03162 µM) of the same compound?
**A.** Its relative viability is 0.364.

**Q.** And the relative viability (CAL-12T; first compound 0.3162 µM)?
**A.** The relative viability was 0.568.

**Q.** And the relative viability (NCI-H3122; first compound 0.01 µM)?
**A.** The relative viability was 0.111.

**Q.** What about the relative viability (NCI-H3122; first compound 0.03162 µM) of the same compound?
**A.** Its relative viability is 0.0892.

**Q.** What about the relative viability (NCI-H3122; first compound 0.3162 µM) of the same compound?
**A.** Its relative viability is 0.0986.

**Q.** What about the relative viability (NCI-H1437; first compound 0.01 µM) of the same compound?
**A.** Its relative viability is 1.29.

**Q.** What about the relative viability (NCI-H1437; first compound 0.03162 µM) of the same compound?
**A.** Its relative viability is 1.25.

**Q.** What about the relative viability (NCI-H1437; first compound 0.3162 µM) of the same compound?
**A.** Its relative viability is 1.2.

**Q.** What about the relative viability (NCI-H1666; first compound 0.01 µM) of the same compound?
**A.** The relative viability was 1.05.

**Q.** What about the relative viability (NCI-H1666; first compound 0.03162 µM) of the same compound?
**A.** Its relative viability is 1.34.

**Q.** What about the relative viability (NCI-H1666; first compound 0.3162 µM) of the same compound?
**A.** The relative viability was 0.943.

**Q.** And the relative viability (LK-2; first compound 0.01 µM)?
**A.** Its relative viability is 0.185.

**Q.** And the relative viability (LK-2; first compound 0.03162 µM)?
**A.** The relative viability was 0.189.

**Q.** What about the relative viability (LK-2; first compound 0.3162 µM) of the same compound?
**A.** Its relative viability is 0.177.

**Q.** What about the relative viability (NCI-H727; first compound 0.01 µM) of the same compound?
**A.** The relative viability was 0.354.

**Q.** What about the relative viability (NCI-H727; first compound 0.03162 µM) of the same compound?
**A.** The relative viability was 0.311.

**Q.** What about the relative viability (NCI-H727; first compound 0.3162 µM) of the same compound?
**A.** Its relative viability is 0.454.

**Q.** And the relative viability (ABC-1; first compound 0.03162 µM)?
**A.** Its relative viability is 0.707.

**Q.** And the relative viability (ABC-1; first compound 0.3162 µM)?
**A.** The relative viability was 0.624.

**Q.** And the relative viability (EKVX; first compound 0.01 µM)?
**A.** Its relative viability is 0.861.

**Q.** What about the relative viability (EKVX; first compound 0.03162 µM) of the same compound?
**A.** Its relative viability is 0.84.

**Q.** And the relative viability (EKVX; first compound 0.3162 µM)?
**A.** The relative viability was 0.924.

**Q.** What about the relative viability (NCI-H2170; first compound 0.01 µM) of the same compound?
**A.** The relative viability was 1.01.

**Q.** What about the relative viability (NCI-H2170; first compound 0.03162 µM) of the same compound?
**A.** The relative viability was 0.739.

**Q.** And the relative viability (NCI-H2170; first compound 0.3162 µM)?
**A.** Its relative viability is 0.822.

**Q.** What about the relative viability (HARA; first compound 0.03162 µM) of the same compound?
**A.** The relative viability was 0.822.

**Q.** What about the relative viability (HARA; first compound 0.3162 µM) of the same compound?
**A.** The relative viability was 1.34.

**Q.** And the relative viability (201T; first compound 0.01 µM)?
**A.** The relative viability was 1.15.

**Q.** And the relative viability (201T; first compound 0.03162 µM)?
**A.** Its relative viability is 1.02.

**Q.** And the relative viability (201T; first compound 0.3162 µM)?
**A.** Its relative viability is 1.02.

**Q.** And the relative viability (SW 900; first compound 0.01 µM)?
**A.** The relative viability was 0.174.

**Q.** What about the relative viability (SW 900; first compound 0.03162 µM) of the same compound?
**A.** Its relative viability is 0.143.

**Q.** What about the relative viability (SW 900; first compound 0.3162 µM) of the same compound?
**A.** The relative viability was 0.174.

**Q.** What about the relative viability (PC-14; first compound 0.03162 µM) of the same compound?
**A.** The relative viability was 0.21.

**Q.** And the relative viability (PC-14; first compound 0.3162 µM)?
**A.** Its relative viability is 0.21.

**Q.** What about the relative viability (COR-L 105; first compound 0.01 µM) of the same compound?
**A.** The relative viability was 0.83.

**Q.** What about the relative viability (COR-L 105; first compound 0.03162 µM) of the same compound?
**A.** Its relative viability is 0.872.

**Q.** And the relative viability (COR-L 105; first compound 0.3162 µM)?
**A.** The relative viability was 0.731.

**Q.** What about the relative viability (BEN; first compound 0.01 µM) of the same compound?
**A.** The relative viability was 0.287.

**Q.** What about the relative viability (BEN; first compound 0.03162 µM) of the same compound?
**A.** Its relative viability is 0.378.

**Q.** What about the relative viability (BEN; first compound 0.3162 µM) of the same compound?
**A.** The relative viability was 0.243.

**Q.** What about the relative viability (NCI-H441; first compound 0.01 µM) of the same compound?
**A.** The relative viability was 0.28.

**Q.** What about the relative viability (NCI-H441; first compound 0.03162 µM) of the same compound?
**A.** Its relative viability is 0.344.

**Q.** What about the relative viability (NCI-H441; first compound 0.3162 µM) of the same compound?
**A.** The relative viability was 0.376.

**Q.** What about the relative viability (NCI-H2023; first compound 0.03162 µM) of the same compound?
**A.** The relative viability was 0.829.

**Q.** And the relative viability (NCI-H2023; first compound 0.3162 µM)?
**A.** Its relative viability is 0.674.

**Q.** What about the relative viability (LU99A; first compound 0.01 µM) of the same compound?
**A.** Its relative viability is 0.217.

**Q.** What about the relative viability (LU99A; first compound 0.03162 µM) of the same compound?
**A.** Its relative viability is 0.188.

**Q.** And the relative viability (LU99A; first compound 0.3162 µM)?
**A.** The relative viability was 0.298.

**Q.** And the relative viability (NCI-H838; first compound 0.01 µM)?
**A.** The relative viability was 0.229.

**Q.** What about the relative viability (NCI-H838; first compound 0.03162 µM) of the same compound?
**A.** Its relative viability is 0.278.

**Q.** What about the relative viability (NCI-H838; first compound 0.3162 µM) of the same compound?
**A.** Its relative viability is 0.345.

**Q.** What about the relative viability (NCI-H1650; first compound 0.03162 µM) of the same compound?
**A.** Its relative viability is 0.202.

**Q.** And the relative viability (NCI-H1650; first compound 0.3162 µM)?
**A.** Its relative viability is 0.195.

**Q.** And the relative viability (COR-L23; first compound 0.01 µM)?
**A.** The relative viability was 0.405.

**Q.** What about the relative viability (COR-L23; first compound 0.03162 µM) of the same compound?
**A.** The relative viability was 0.814.

**Q.** And the relative viability (COR-L23; first compound 0.3162 µM)?
**A.** The relative viability was 0.869.
